Blank lines part the entries; values can stand above or below the molecule they belong to.
Tests used:
Carbonic anhydrase 9 = Carbonic anhydrase 9 (Homo sapiens, UniProt Q16790)
[1] = molecular target: Carbonic anhydrase 5A, mitochondrial (Homo sapiens, UniProt P35218)
Carbonic anhydrase 2 = Carbonic anhydrase 2 (Homo sapiens, UniProt P00918)
Carbonic anhydrase 4 = Carbonic anhydrase 4 (Homo sapiens, UniProt P22748)
Carbonic anhydrase 1 = Carbonic anhydrase 1 (Homo sapiens, UniProt P00915)
Carbonic anhydrase 1, sequence (P00915 whole entry): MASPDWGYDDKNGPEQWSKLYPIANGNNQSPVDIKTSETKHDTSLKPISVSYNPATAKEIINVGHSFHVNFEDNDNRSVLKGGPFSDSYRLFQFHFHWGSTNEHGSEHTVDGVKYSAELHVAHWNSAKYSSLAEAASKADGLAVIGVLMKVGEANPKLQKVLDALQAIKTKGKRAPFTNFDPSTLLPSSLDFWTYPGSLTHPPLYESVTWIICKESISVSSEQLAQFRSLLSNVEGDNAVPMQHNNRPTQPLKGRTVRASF

Carbonic anhydrase 4, sequence (P22748 whole entry): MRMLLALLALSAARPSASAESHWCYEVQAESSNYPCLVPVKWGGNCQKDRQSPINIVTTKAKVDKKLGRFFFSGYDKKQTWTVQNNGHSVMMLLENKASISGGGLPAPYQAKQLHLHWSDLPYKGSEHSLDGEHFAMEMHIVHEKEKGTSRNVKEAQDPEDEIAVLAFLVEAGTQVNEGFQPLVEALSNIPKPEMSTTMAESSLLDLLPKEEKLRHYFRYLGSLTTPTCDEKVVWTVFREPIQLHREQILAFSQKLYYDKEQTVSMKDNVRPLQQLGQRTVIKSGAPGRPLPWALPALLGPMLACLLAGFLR
Carbonic anhydrase 5A, mitochondrial, sequence (P35218 whole entry): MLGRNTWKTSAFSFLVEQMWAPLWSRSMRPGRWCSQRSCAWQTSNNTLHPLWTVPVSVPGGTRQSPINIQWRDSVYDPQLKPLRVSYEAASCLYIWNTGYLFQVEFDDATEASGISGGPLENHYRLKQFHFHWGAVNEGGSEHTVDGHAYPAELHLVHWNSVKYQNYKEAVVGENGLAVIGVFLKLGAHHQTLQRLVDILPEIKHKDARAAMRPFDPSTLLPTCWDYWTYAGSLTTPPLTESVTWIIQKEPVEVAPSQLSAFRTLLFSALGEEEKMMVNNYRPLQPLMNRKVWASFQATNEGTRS

Ki (Carbonic anhydrase 9): 0.0086 mM
Ki [1]: 95 mM
Structure (SMILES): O=C(O)O [BICARBONATE]

Structure (SMILES): [O-][Br+2]([O-])O [BROMATE]
Ki (Carbonic anhydrase 2): 12 mM
Ki (Carbonic anhydrase 4): 128 mM
Ki (Carbonic anhydrase 9): 274 mM
Ki [1]: 11.3 mM
Ki (Carbonic anhydrase 1): 4.79 mM

Structure (SMILES): [O-][Cl+2]([O-])O [CHLORATE]
Ki (Carbonic anhydrase 2): 0.85 mM
Ki (Carbonic anhydrase 4): 64.9 mM
Ki (Carbonic anhydrase 9): 147 mM
Ki [1]: 7.12 mM
Ki (Carbonic anhydrase 1): 0.54 mM

Structure (SMILES): O=[N+]([O-])O [NITRIC ACID]
Ki [1]: 16 mM

Structure (SMILES): [O-][Cl+3]([O-])([O-])O [PERCHLORATE]
Ki (Carbonic anhydrase 4): 767 mM
Ki (Carbonic anhydrase 9): 11.6 mM
Ki [1]: 13.6 mM
Ki (Carbonic anhydrase 1): 0.69 mM

Structure (SMILES): [O-][I+3]([O-])([O-])O [PERIODATE]
Ki (Carbonic anhydrase 2): 75.8 mM
Ki (Carbonic anhydrase 4): 226 mM
Ki (Carbonic anhydrase 9): 30.3 mM
Ki [1]: 15.7 mM
Ki (Carbonic anhydrase 1): 14.6 mM

Ki (Carbonic anhydrase 9): 0.0092 mM
Ki [1]: 0.12 mM
Structure (SMILES): NS(=O)(=O)O [SULFAMATE]

Structure (SMILES): O=S(=O)(O)O [SULFURIC ACID]
Ki (Carbonic anhydrase 9): 154 mM
Ki [1]: 680 mM

Reference: ChEMBL document CHEMBL1144269, “Carbonic anhydrase inhibitors. Inhibition of isozymes I, II, IV, V, and IX with anions isosteric and isoelectronic with sulfate, nitrate, and carbonate” (Bioorg Med Chem Lett, 2005)
